Results taken from patent US20150246025A1, “2-PHENYL-5-HETEROCYCLYL-TETRAHYDRO-2H-PYRAN-3-AMINE COMPOUNDS FOR USE IN THE TREATMENT OF DIABETES AND ITS ASSOCIATED DISORDERS” (CADILA HEALTHCARE LIMITED, priority 2012, published 2015).

Key:
[1] = biological target: T1, DPP-IV enzyme (Homo sapiens, UniProt P27487); assay: In vitro DPP-IV inhibitory activity using enzymatic (fluorescence-based) assay; type: biochemical; settings: soluble human DPP-IV, H-Gly-Pro-AMC 200 μM, pH 7.8, 25° C., 30 min; read-out: % In-vitro DPPIV Inhibition IC50
T1 construct: soluble human proteins (DPP-IV enzyme) produced in a baculovirus expression system; made in house; host or cells: baculovirus expression system (Life Technologies)
Description: In Vitro DPP-IV Inhibitory Activity Using Enzymatic Assay:
In vitro enzyme (DPP-IV) inhibitory activity was determined using fluorescence-based assay (Anal. Biochem., 200, 352, 1992). The Gly-Pro-AMC was used as a substrate (which is cleaved by the enzymes to release the fluorescent AMC) and soluble human proteins (DPP-IV enzyme) produced in a baculovirus expression system (Life Technologies) was used as the enzyme source. The H-Gly-Pro-AMC (200 μM) was incubated with DPP-IV enzyme in the presence of various concentrations (30 & 100 nM) of test compounds. Reaction was carried out at pH 7.8 (HEPES buffer 25 mM containing 1.0% BSA, 140 mM NaCl, 16 mM MgCl2, 2.8% DMSO) in a total volume of 100 μl at 25° C. for 30 min., in the dark. Reaction was terminated with acetic acid (25 μl of 25% solution). Activity (fluorescence) was measured using Spectra Max fluorometer (Molecular Devices, Sunnyvale Calif.) by exciting at 380 nm and emission at 460 nm.

[2] = system: C57BL/6J mice; assay: In vivo antihyperglycaemic/antidiabetic activity (OGTT), acute single dose 120-min time-course; settings: Mus musculus, 2 h; male C57BL/6J mice, acute single dose 0,3 mg/kg po, 120-min time-course, n = 6, Mean ± SEM; read-out: In vivo OGTT C57; % Glucose change
Description: Acute single dose 120-min time-course experiments were carried out in male C57BL/6J mice, age 8-12 weeks, bred in-house. Animals were housed in groups of 6 animals per cage, for a week, in order to habituate them to vivarium conditions (25±4° C., 60-65% relative humidity, 12: 12 h light: dark cycle, with lights on at 7.30 am). All the animal experiments were carried out according to the internationally valid guidelines following approval by the ‘Zydus Research Center animal ethical committee’.
The in-vivo glucose lowering properties of the test compounds were evaluated in C57BL/6J (mild hyperglycemic) animal models as described below. Two days prior to the study, the animals were randomized and divided into groups (n=6), based upon their fed glucose levels. On the day of experiment, food was withdrawn from all the cages, water was given ad-libitum and were kept for overnight fasting. Vehicle (normal saline)/test compounds were administered orally, on a body weight basis. Soon after the 0 min. blood collection from each animal, the subsequent blood collections were done at 30, 60 and 120 or upto 240 min., via retro-orbital route, under light ether anesthesia (Diabetes Obesity Metabolism, 7, 307, 2005; Diabetes, 52, 751, 2003).
Blood samples were centrifuged and the separated serum was immediately subjected for the glucose estimation. Serum for insulin estimation was stored at −70° C. until used for the insulin estimation. The glucose estimation was carried out with DPEC-GOD/POD method (Ranbaxy Fine Chemicals Limited, Diagnostic division, India), using Spectramax-190, in 96-microwell plate reader (Molecular devices Corporation, Sunnyvale, Calif.). […] The AUC and BCAUC obtained from graphs were analyzed for one way ANOVA, followed by Dunnett's post test, using Graph Pad prism software.

T1 sequence (P27487 39-766 limits assumed): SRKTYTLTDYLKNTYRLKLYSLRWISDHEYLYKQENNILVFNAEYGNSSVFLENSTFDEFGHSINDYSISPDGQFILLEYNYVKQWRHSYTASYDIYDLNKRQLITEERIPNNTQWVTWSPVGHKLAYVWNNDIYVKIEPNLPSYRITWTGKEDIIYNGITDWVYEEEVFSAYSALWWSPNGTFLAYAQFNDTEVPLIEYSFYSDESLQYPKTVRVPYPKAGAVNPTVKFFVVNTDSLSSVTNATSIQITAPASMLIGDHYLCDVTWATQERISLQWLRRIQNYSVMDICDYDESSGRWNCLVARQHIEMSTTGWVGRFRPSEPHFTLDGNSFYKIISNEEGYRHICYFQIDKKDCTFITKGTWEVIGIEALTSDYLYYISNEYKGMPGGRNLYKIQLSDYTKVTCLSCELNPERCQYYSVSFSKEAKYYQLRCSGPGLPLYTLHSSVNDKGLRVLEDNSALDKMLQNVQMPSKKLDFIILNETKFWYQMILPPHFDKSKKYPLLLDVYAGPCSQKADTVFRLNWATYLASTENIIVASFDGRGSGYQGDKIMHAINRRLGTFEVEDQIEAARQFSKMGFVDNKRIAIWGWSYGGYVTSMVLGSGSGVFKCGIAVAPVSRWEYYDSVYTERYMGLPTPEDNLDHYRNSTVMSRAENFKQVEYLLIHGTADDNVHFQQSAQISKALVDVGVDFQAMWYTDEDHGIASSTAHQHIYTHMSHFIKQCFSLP

Compound	IC50 [1] [µM]	change in vivo at 0.3 mg/kg [2] [%]
CS(=O)(=O)N1CCC2(CCN([C@H]3CO[C@H](c4cc(F)ccc4F)[C@@H](N)C3)C2)C1 (stereo partly drawn) [Compound 2, (2R,3S,5R)-2-(2,5-difluorophenyl)-5-(7-(methylsulfonyl)-2,7-diazaspiro[4.4]-nonan-2-yl)tetrahydro-2H-pyran-3-amine]	< 0.01	-25.7 ± 1.8
N[C@H]1C[C@@H](N2CC3CNCC3C2)CO[C@@H]1c1cc(F)ccc1F (stereo partly drawn) [Compound 4, (2R,3S,5R)-2-(2,5-difluorophenyl)-5-(hexahydropyrrolo[3,4-c]pyrrol-2(1H)-yl)tetrahydro-2H-pyran-3-amine]	< 0.1	-16.5 ± 3.8
N[C@H]1C[C@@H](N2CC3CN(S(=O)(=O)C(F)(F)F)CC3C2)CO[C@@H]1c1cc(F)ccc1F (stereo partly drawn) [Compound 5, (2R,3S,5R)-2-(2,5-difluorophenyl)-5-(5-((trifluoromethyl)sulfonyl)hexahydropyrrolo[3,4-c]pyrrol-2(1H)-yl)tetrahydro-2H-pyran-3-amine]	< 0.1	-7.6 ± 1.3
N[C@H]1C[C@@H](N2CC3CN(S(=O)(=O)c4ccccc4)CC3C2)CO[C@@H]1c1cc(F)ccc1F (stereo partly drawn) [Compound 6, (2R,3S,5R)-2-(2,5-difluorophenyl)-5-(5-(phenylsulfonyl)hexahydropyrrolo[3,4-c]pyrrol-2(1H)-yl)tetrahydro-2H-pyran-3-amine]	< 0.1	-7.3 ± 1.6
CN(C)S(=O)(=O)N1CC2CN([C@H]3CO[C@H](c4cc(F)ccc4F)[C@@H](N)C3)CC2C1 (stereo partly drawn) [Compound 7, 5-((3R,5S,6R)-5-amino-6-(2,5-difluorophenyl)tetrahydro-2H-pyran-3-yl)-N,N-dimethylhexahydropyrrolo[3,4-c]pyrrole-2(1H)-sulfonamide]	< 0.01	-7.9 ± 1.2
CN(C)S(=O)(=O)N1CC2=C(CN([C@H]3CO[C@H](c4cc(F)ccc4F)[C@@H](N)C3)C2)C1 [Compound 9, 5-((3R,5S,6R)-5-amino-6-(2,5-difluorophenyl)tetrahydro-2H-pyran-3-yl)-N,N-dimethyl-3,4,5,6-tetrahydropyrrolo[3,4-c]pyrrole-2(1H)-sulfonamide]	< 0.01	-34.7 ± 4.4
N[C@H]1C[C@@H](N2CC3C(=O)N(C4CC4)C(=O)C3C2)CO[C@@H]1c1cc(F)ccc1F (stereo partly drawn) [Compound 10, 5-((3R,5S,6R)-5-amino-6-(2,5-difluorophenyl)tetrahydro-2H-pyran-3-yl)-2-cyclopropyltetrahydropyrrolo[3,4-c]pyrrole-1,3(2H,3aH)-dione]	< 0.1	-12.5 ± 1.3
N[C@H]1C[C@@H](N2CC3C(=O)N(Cc4ccccc4)C(=O)C3C2)CO[C@@H]1c1cc(F)ccc1F (stereo partly drawn) [Compound 11, 5-((3R,5S,6R)-5-amino-6-(2,5-difluorophenyl)tetrahydro-2H-pyran-3-yl)-2-benzyltetrahydropyrrolo[3,4-c]pyrrole-1,3(2H,3aH)-dione]	< 0.1	-25.6 ± 3.2
CS(=O)(=O)N1CCC2CN([C@H]3CO[C@H](c4cc(F)ccc4F)[C@@H](N)C3)CC2C1 (stereo partly drawn) [Compound 12, (2R,3S,5R)-2-(2,5-difluorophenyl)-5-(5-(methylsulfonyl)hexahydro-1H-pyrrolo[3,4-c]pyridin-2(3H)-yl)tetrahydro-2H-pyran-3-amine]	< 0.1	-9.8 ± 1.5
CS(=O)(=O)N1CC2CCN([C@H]3CO[C@H](c4cc(F)ccc4F)[C@@H](N)C3)CC2C1 (stereo partly drawn) [Compound 13, (2R,3S,5R)-2-(2,5-difluorophenyl)-5-(2-(methylsulfonyl)hexahydro-1H-pyrrolo[3,4-c]pyridin-5(6H)-yl)tetrahydro-2H-pyran-3-amine]	< 0.01	-26.4 ± 1.6
CS(=O)(=O)N1CCC2(CCN([C@H]3CO[C@H](c4cc(F)ccc4F)[C@@H](N)C3)C2)CC1 [Compound 14, (2R,3S,5R)-2-(2,5-difluorophenyl)-5-(8-(methylsulfonyl)-2,8-diazaspiro[4.5]decan-2-yl)tetrahydro-2H-pyran-3-amine]	< 0.1	-14.2 ± 3.4
CS(=O)(=O)N1CCC2CN([C@H]3CO[C@H](c4cc(F)ccc4F)[C@@H](N)C3)CC21 (stereo partly drawn) [Compound 15, (2R,3S,5R)-2-(2,5-difluorophenyl)-5-(1-(methylsulfonyl)hexahydropyrrolo[3,4-b]pyrrol-5(1H)-yl)tetrahydro-2H-pyran-3-amine]	< 0.1	-42 ± 1.8
CS(=O)(=O)N1CC2CCN([C@H]3CO[C@H](c4cc(F)ccc4F)[C@@H](N)C3)C2C1 (stereo partly drawn) [Compound 16, (2R,3S,5R)-2-(2,5-difluorophenyl)-5-(5-(methylsulfonyl)hexahydropyrrolo[3,4-b]pyrrol-1(2H)-yl)tetrahydro-2H-pyran-3-amine]	< 0.1	-29.4 ± 6.8
N[C@H]1C[C@@H](N2CC3CN(Cc4ccccc4)CC3C2)CO[C@@H]1c1cc(F)ccc1F (stereo partly drawn) [Compound 18, (2R,3S,5R)-5-(5-benzylhexahydropyrrolo[3,4-c]pyrrol-2(1H)-yl)-2-(2,5-difluorophenyl)tetrahydro-2H-pyran-3-amine]	< 0.1	-12.6 ± 4
CS(=O)(=O)N1C[C@H]2CN([C@H]3CO[C@H](c4cc(F)ccc4F)[C@@H](N)C3)C[C@H]21 [Compound 19, (2R,3S,5R)-2-(2,5-difluorophenyl)-5-((1R,5S)-6-(methylsulfonyl)-3,6-diazabicyclo[3.2.0]heptan-3-yl)tetrahydro-2H-pyran-3-amine]	< 0.1	-20.6 ± 3
CS(=O)(=O)N1C[C@H]2CN([C@H]3CO[C@H](c4cc(F)ccc4F)[C@@H](N)C3)[C@H]2C1 [Compound 20, (2R,3S,5R)-2-(2,5-difluorophenyl)-5-((1R,5R)-3-(methylsulfonyl)-3,6-diazabicyclo[3.2.0]heptan-6-yl)tetrahydro-2H-pyran-3-amine]	< 0.1	-8.4 ± 1.7
CS(=O)(=O)NC1CC2CN([C@H]3CO[C@H](c4cc(F)ccc4F)[C@@H](N)C3)CC2C1 (stereo partly drawn) [Compound 21, N-(2-((3R,5S,6R)-5-amino-6-(2,5-difluorophenyl)tetrahydro-2H-pyran-3-yl)octahydrocyclopenta[c]pyrrol-5-yl)methanesulfonamide]	< 0.1	-15 ± 4
N[C@H]1C[C@@H](N2CC3=C(CN(C(=O)C4CC4)C3)C2)CO[C@@H]1c1cc(F)ccc1F [Compound 22, (2R,3S,5R)-5-(5-(cyclopropanecarbonyl)-5,6-dihydropyrrolo[3,4-c]pyrrol-2(1H,3H,4H)-yl)-2-(2,5-difluorophenyl)tetrahydro-2H-pyran-3-amine]	< 0.03	-25.1 ± 2
N[C@H]1C[C@@H](N2CC3=C(CN(C(=O)c4ccccc4)C3)C2)CO[C@@H]1c1cc(F)ccc1F [Compound 23, (5-((3R,5S,6R)-5-amino-6-(2,5-difluorophenyl)tetrahydro-2H-pyran-3-yl)-5,6-dihydropyrrolo[3,4-c]pyrrol-2(1H,3H,4H)-yl)(phenyl)methanone]	< 0.03	-22 ± 1.2
CC(C)C(=O)N1CC2=C(C1)CN([C@H]1CO[C@H](c3cc(F)ccc3F)[C@@H](N)C1)C2 [Compound 24, 1-(5-((3R,5S,6R)-5-amino-6-(2,5-difluorophenyl)tetrahydro-2H-pyran-3-yl)-5,6-dihydropyrrolo[3,4-c]pyrrol-2(1H,3H,4H)-yl)-2-methylpropan-1-one]	< 0.03	-18.9 ± 5.7
Cc1ccc(S(=O)(=O)N=S(C)(=O)N2CC3=C(CN([C@H]4CO[C@H](c5cc(F)ccc5F)[C@@H](N)C4)C3)C2)cc1 (stereo partly drawn) [Compound 49, (2R,3S,5R)-2-(2,5-difluorophenyl)-5-(5-(N-(4-methylbenzenesulfonyl)-S-methylsulfonimidoyl)-5,6-dihydropyrrolo[3,4-c]pyrrol-2(1H,3H,4H)-yl)tetrahydro-2H-pyran-3-amine]	< 0.01	–
